The compounds below were run against T1, FGFR3 protein (Homo sapiens, UniProt P22607) (assay: FGFR3 enzyme assay (KinEASE-TK HTRF kinase assay)). Conditions: 0.25 nM enzyme, ATP at Km, 15 min pre-incubation on ice, 30 min at 30° C.
T1 construct: purchased Reaction Biology 1068
Type: biochemical
Protocol: FGFR3 and FGFR1 Enzyme Assay
Enzyme activity was monitored using the KinEASE™-TK Assay Kit (Cisflio, Cat. No. 62TK0PEC) according to the manufacturer's instructions. All assays were performed at the respective KmATP for each kinase in KinEASE™ Kinase Buffer.
Titration of compounds were performed in a half-log manner in 100% dimethyl sulfoxide (DMSO) starting at 1 uM. Prior to the initiation of the reaction by adenosine triphosphate (ATP), FGFR1 protein and compounds were pre-incubated for 15 minutes at room temperature, and FGFR3 protein and compounds were pre-incubated on ice for 15 minutes. Reactions proceeded for 30 min at 30° C. Plates were quenched by the addition of the Anti-TK cryptate antibody/Streptavidin-XL665 mixture.
Ratios were converted to a percent of control (POC) using a ratiometric emission factor. One hundred POC was determined using no test compound, and 0 POC was determined in the presence of 1 uM of an appropriate control inhibitor.

T1 sequence (P22607 23-806): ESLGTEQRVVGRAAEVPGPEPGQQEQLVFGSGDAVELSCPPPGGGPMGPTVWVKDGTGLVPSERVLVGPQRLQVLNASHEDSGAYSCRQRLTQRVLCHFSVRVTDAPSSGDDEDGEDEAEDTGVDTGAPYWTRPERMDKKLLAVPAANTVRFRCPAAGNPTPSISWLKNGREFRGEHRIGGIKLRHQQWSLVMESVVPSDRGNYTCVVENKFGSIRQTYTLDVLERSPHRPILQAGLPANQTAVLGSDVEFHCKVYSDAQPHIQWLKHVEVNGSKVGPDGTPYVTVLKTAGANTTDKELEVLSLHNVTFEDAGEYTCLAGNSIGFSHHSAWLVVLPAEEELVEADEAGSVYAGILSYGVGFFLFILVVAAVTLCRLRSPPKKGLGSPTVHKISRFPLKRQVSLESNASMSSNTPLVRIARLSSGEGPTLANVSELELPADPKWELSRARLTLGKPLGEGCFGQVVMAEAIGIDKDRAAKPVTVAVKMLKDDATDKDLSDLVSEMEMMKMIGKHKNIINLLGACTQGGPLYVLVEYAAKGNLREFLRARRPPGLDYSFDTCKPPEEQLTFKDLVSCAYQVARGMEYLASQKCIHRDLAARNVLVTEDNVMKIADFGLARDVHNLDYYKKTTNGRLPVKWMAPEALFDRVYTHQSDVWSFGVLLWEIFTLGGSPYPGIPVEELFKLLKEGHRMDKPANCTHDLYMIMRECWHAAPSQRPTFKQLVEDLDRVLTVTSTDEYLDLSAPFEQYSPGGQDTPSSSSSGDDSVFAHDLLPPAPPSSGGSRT

IC50 [µM] | SMILES
< 0.1 | Cc1c(-c2cc(OC(C)c3ccccc3S(C)(=O)=O)c3c(C#N)cnn3c2)cnn1C1CCN(C#N)CC1 (single isomer, unassigned; isomer 2) [Example 77, 6-[1-(1-Cyano-4-piperidyl)-5-methyl-pyrazol-4-yl]-4-[1-(2-methylsulfonylphenyl)ethoxy]pyrazolo[1,5-a]pyridine-3-carbonitrile, Isomer 2]
< 0.1 | Cc1c(-c2cc(OC(C)c3cc(C(F)(F)F)cnc3N3CCOCC3)c3c(C#N)cnn3c2)nnn1C1CCN(C#N)CC1 (stereo not drawn) [Example 13, 6-[1-(1-Cyano-4-piperidyl)-5-methyl-triazol-4-yl]-4-[1-[2-morpholino-5-(trifluoromethyl)-3-pyridyl]ethoxy]pyrazolo [1,5-a]pyridine-3-carbonitrile]
< 0.05 | Cc1c(-c2cc(OC(C)c3cncc4cc(F)ccc34)c3c(C#N)cnn3c2)nnn1C1CCN(C#N)CC1 (stereo not drawn) [Example 21, 6-[1-(1-Cyano-4-piperidyl)-5-methyl-triazol-4-yl]-4-[1-(7-fluoro-4-isoquinolyl)ethoxy] pyrazolo[1,5-a] pyridine-3-carbonitrile]
< 0.05 | Cc1c(-c2cc(OC(CF)c3ccc(F)cn3)c3c(C#N)cnn3c2)nnn1C1CCN(C#N)CC1 (stereo not drawn) [Example 22, 6-[1-(1-Cyano-4-piperidyl)-5-methyl-triazol-4-yl]-4-[2-fluoro-1-(5-fluoro-2-pyridyl)ethoxy]pyrazolo [1,5-a]pyridine-3-carbonitrile]
< 0.05 | Cc1c(-c2cc(OC(C)c3cncc4ccccc34)c3c(C#N)cnn3c2)nnn1C1CCN(C#N)CC1 (stereo not drawn) [Example 24, 6-[1-(1-Cyano-4-piperidyl)-5-methyl-triazol-4-yl]-4-[1-(4-isoquinolyl)ethoxy] pyrazolo[1,5-a] pyridine-3-carbonitrile]
< 0.05 | Cc1c(-c2cc(OC(c3ccc(F)cn3)C3(F)CC3)c3c(C#N)cnn3c2)nnn1C1CCN(C#N)CC1 (stereo not drawn) [Example 26, 6-[1-(1-Cyano-4-piperidyl)-5-methyl-triazol-4-yl]-4-[(1-fluorocyclopropyl)-(5-fluoro-2-pyridyl)methoxy]pyrazolo [1,5-a]pyridine-3-carbonitrile]
< 0.05 | Cc1c(-c2cc(O[C@H](C)c3ccccn3)c3c(C#N)cnn3c2)nnn1C1CCN(C#N)CC1 [Example 169, 4-(4-[3-Cyano-4-[(1R)-1-(pyridin-2-yl)ethoxy]pyrazolo[1,5-a]pyridin-6-yl]-5-methyl-1,2,3-triazol-1-yl)piperidine-1-carbonitrile]
< 0.05 | Cc1c(-c2cc(O[C@H](C)c3ccc(F)cn3)n3c(C#N)cnc3c2)nnn1C1CCN(C#N)CC1 [Example 170, 4-(4-[3-Cyano-5-[(1R)-1-(5-fluoropyridin-2-yl)ethoxy]imidazo[1,2-a]pyridin-7-yl]-5-methyl-1,2,3-triazol-1-yl)piperidine-1-carbonitrile]
< 0.05 | COc1cc(-c2cnn(C3CC4(CCN(C#N)CC4)C3)c2C)cn2ncc(C#N)c12 [Example 171, 2-(4-[3-Cyano-4-methoxypyrazolo[1,5-a]pyridin-6-yl]-5-methylpyrazol-1-yl)-7-azaspiro[3.5]nonane-7-carbonitrile]
< 0.05 | COc1cc(-c2cnn([C@H]3C[C@H]4CC[C@@H](C3)N4C#N)c2C)cn2ncc(C#N)c12 [Example 183, 6-(1-((1R,3r,5S)-8-Cyano-8-azabicyclo[3.2.1]octan-3-yl)-5-methyl-1H-pyrazol-4-yl)-4-methoxypyrazolo[1,5-a]pyridine-3-carbonitrile]
< 0.05 | Cc1c(-c2cc(O[C@H](C)c3ccnn3C)c3c(C#N)cnn3c2)cnn1C1CCN(C#N)CC1 [Example 189, 4-(4-[3-Cyano-4-[(1R)-1-(2-methylpyrazol-3-yl)ethoxy]pyrazolo [1,5-a]pyridin-6-yl]-5-methylpyrazol-1-yl)piperidine-1-carbonitrile]
< 0.05 | Cc1c(-c2cc(O[C@H](C)C3CCC3)c3c(C#N)cnn3c2)cnn1C1CCN(C#N)CC1 [Example 195, 4-(4-[3-cyano-4-[(1R)-1-cyclobutylethoxy]pyrazolo[1,5-a]pyridin-6-yl]-5-methylpyrazol-1-yl)piperidine-1-carbonitrile]
< 0.05 | Cc1c(-c2cc(O[C@H](C)c3ccccn3)n3c(C#N)cnc3c2)nnn1C1CCN(C#N)CC1 [Example 201, 4-(4-[3-Cyano-5-[(1R)-1-(pyridin-2-yl)ethoxy]imidazo [1,2-a]pyridin-7-yl]-5-methyl-1,2,3-triazol-1-yl)piperidine-1-carbonitrile]
< 0.05 | Cc1c(-c2cc(O[C@H](C)c3ccc(F)cn3)n3c(C#N)cnc3c2)cnn1C1CCN(C#N)CC1 [Example 209]
< 0.05 | Cc1c(-c2cc(O[C@H](C)c3ccccn3)n3c(C#N)cnc3c2)nnn1C1CC2(CCN(C#N)CC2)C1 [Example 212, 7-[1-(7-Cyano-7-azaspiro[3.5]nonan-2-yl)-5-methyl-triazol-4-yl]-5-[(1R)-1-(2-pyridyl)ethoxy]imidazo [1,2-a]pyridine-3-carbonitrile]
< 0.05 | COc1cc(-c2cnn(C3CN([C@H]4CCCN(C#N)C4)C3)c2C)cn2ncc(C#N)c12 [Example 215, (3S)-3-[3-(4-[3-Cyano-4-methoxypyrazolo[1,5-a]pyridin-6-yl]-5-methylpyrazol-1-yl)azetidin-1-yl]piperidine-1-carbonitrile]
< 0.05 | COc1cc(-c2cnn(C3CN([C@@H]4CCN(C#N)C4)C3)c2C)cn2ncc(C#N)c12 [Example 222, (3R)-3-[3-(4-[3-Cyano-4-methoxypyrazolo[1,5-a]pyridin-6-yl]-5-methylpyrazol-1-yl)azetidin-1-yl]pyrrolidine-1-carbonitrile]
< 0.1 | COc1cc(-c2cnn(C3CN(C4CC5CC(C4)N(C#N)C5)C3)c2C)cn2ncc(C#N)c12 (stereo not drawn) [Example 225, 6-(1-(1-(6-cyano-6-azabicyclo[3.2.1]octan-3-yl)azetidin-3-yl)-5-methyl-1H-pyrazol-4-yl)-4-methoxypyrazolo[1,5-a]pyridine-3-carbonitrile]
< 0.05 | Cc1c(-c2cc(O[C@H](C)c3ccccn3)n3c(C#N)cnc3c2)cnn1C1CN(C2CC3CCC2N3C#N)C1 (stereo partly drawn) [Example 226, 7-[1-[1-(7-Cyano-7-azabicyclo[2.2.1]heptan-2-yl)azetidin-3-yl]-5-methyl-pyrazol-4-yl]-5-[(1R)-1-(2-pyridyl)ethoxy]imidazo [1,2-a]pyridine-3-carbonitrile]
< 0.05 | COc1cc(-c2cnn(C3CCN(C4CN(C#N)C4)CC3)c2C)cn2ncc(C#N)c12 [Example 228, 3-[4-(4-[3-Cyano-4-methoxypyrazolo[1,5-a]pyridin-6-yl]-5-methylpyrazol-1-yl)piperidin-1-yl]azetidine-1-carbonitrile]
< 0.1 | Cc1c(-c2cc(O[C@H](C)c3ccccn3)n3c(Cl)cnc3c2)nnn1C1CN(C2CCN(C#N)CC2)C1 [Example 233, 4-[3-[4-[3-Chloro-5-[(1R)-1-(2-pyridyl)ethoxy]imidazo[1,2-a]pyridin-7-yl]-5-methyl-triazol-1-yl]azetidin-1-yl]piperidine-1-carbonitrile]
< 0.05 | Cc1c(-c2cc(O[C@H](C)C3CCOCC3)c3c(C#N)cnn3c2)cnn1C1CCN(C#N)CC1 [Example 245, 4-(4-[3-Cyano-4-[(1R)-1-(oxan-4-yl)ethoxy]pyrazolo [1,5-a]pyridin-6-yl]-5-methylpyrazol-1-yl)piperidine-1-carbonitrile]
< 0.05 | Cc1c(-c2cc(O[C@H](C)c3ccccn3)n3c(C#N)cnc3c2)nnn1C1CCCN(C#N)CC1 (stereo partly drawn) [Example 257, 7-[1-(1-Cyanoazepan-4-yl)-5-methyl-triazol-4-yl]-5-[(1R)-1-(2-pyridyl)ethoxy] imidazo[1,2-a]pyridine-3-carbonitrile]
< 0.1 | Cc1c(-c2cc(O[C@H](C)c3nncn3CC(F)(F)F)n3c(C#N)cnc3c2)nnn1C1CCN(C#N)CC1 [Example 274, 7-[1-(1-Cyano-4-piperidyl)-5-methyl-triazol-4-yl]-5-[(1R)-1-[4-(2,2,2-trifluoroethyl)-1,2,4-triazol-3-yl]ethoxy]imidazo [1,2-a]pyridine-3-carbonitrile]
< 0.05 | Cc1nc([C@@H](C)Oc2cc(-c3nnn(C4CCN(C#N)CC4)c3C)cn3ncc(C#N)c23)cs1 [Example 291, 6-[1-(1-Cyano-4-piperidyl)-5-methyl-triazol-4-yl]-4-[(1R)-1-(2-methylthiazol-4-yl)ethoxy]pyrazolo [1,5-a]pyridine-3-carbonitrile]
< 0.05 | Cc1c(-c2cc(O[C@H](C)c3ccn(C)n3)c3c(C#N)cnn3c2)nnn1C1CCN(C#N)CC1 [Example 292, 6-[1-(1-Cyano-4-piperidyl)-5-methyl-triazol-4-yl]-4-[(1R)-1-(1-methylpyrazol-3-yl)ethoxy]pyrazolo [1,5-a]pyridine-3-carbonitrile]
< 0.05 | Cc1c(-c2cc(O[C@H](C)c3ccccc3C#N)c3c(Cl)cnn3c2)cnn1C1CCN(C#N)CC1 [Example 297, 4-[4-[3-Chloro-4-[(1R)-1-(2-cyanophenyl)ethoxy]pyrazolo[1,5-a]pyridin-6-yl]-5-methyl-pyrazol-1-yl]piperidine-1-carbonitrile]

From patent US12209086B2, “FGFR3 inhibitor compounds” (ELI LILLY AND COMPANY, priority 2021, dated 2025)
